# Laboratory results reported in US20230348442A1, “GALECTIN-3 INHIBITING 2-HYDROXYCYCLOALKANE-1-CARBAMOYL DERIVATIVES” (Idorsia Pharmaceuticals Ltd, priority 2020, published 2023).
# Molecular target: human Gal-3 (hGal-3) (Homo sapiens (Human), UniProt P17931)
# Test: competitive binding assay: binding of biotinylated hGal-3 to microplate-adsorbed asialofetuin (ASF), spectrophotometric
# Conditions: Activity on hGal-3; mean values of several measurements
# Procedure: Evaluation of Compound Inhibitory Activity (IC50)
# The inhibitory activity of compounds is determined in competitive binding assays. This spectrophotometric assay measures the binding of biotinylated human Gal-3 (hGal-3) or human Gal-1 (hGal-1), respectively, to a microplate-adsorbed glycoprotein, asialofetuin (ASF) (Proc Natl Acad Sci USA. 2013 Mar. 26; 110(13):5052-7.). Alternatively, and preferably, a human Gal-1 version in which all six cysteines are substituted by serines may be used.
# Briefly, compounds are serially diluted in DMSO (working dilutions). ASF-coated 384 well plates are supplemented with 22.8 μL/well of biotinylated hGal-3 or hGal-1 in assay buffer (i.e. 300-1000 ng/mL biotinylated hGal-3 or hGal-1) to which 1.2 μL of compound working dilutions are added and mixed.
# Plates are incubated for 3 hours at 4° C., then washed with cold assay buffer (3×50 uL), incubated for 1 hour with 25 μL/well of a streptavidin-peroxidase solution (diluted in assay buffer to 80 ng/mL) at 4° C., followed by further washing steps with assay buffer (3×50 uL). Finally, 25 μL/well of ABTS substrate is added.
# The calculated IC50 values may fluctuate depending on the daily assay performance. Fluctuations of this kind are known to those skilled in the art. IC50 values from several measurements are given as mean values.
# Chain of human Gal-3 (hGal-3) (P17931 whole entry): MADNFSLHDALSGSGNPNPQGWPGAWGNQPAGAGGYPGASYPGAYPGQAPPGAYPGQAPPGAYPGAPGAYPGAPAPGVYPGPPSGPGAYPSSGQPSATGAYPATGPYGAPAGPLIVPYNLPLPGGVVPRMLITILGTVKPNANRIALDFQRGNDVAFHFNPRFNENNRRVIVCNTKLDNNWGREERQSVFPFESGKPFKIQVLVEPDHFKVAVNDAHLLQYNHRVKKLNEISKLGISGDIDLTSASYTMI
row,IC50 [nM],Compound
1,75.9,"CO[C@@H]1[C@@H](n2cc(-c3ccc(Cl)c(Cl)c3)nn2)[C@@H](O)[C@@H](CO)O[C@H]1C(=O)N(c1cc(Cl)cc(C#N)c1)[C@H]1CCC[C@@H]1O [Example 1.8.4, (2R,3R,4S,5R,6R)-N-(3-chloro-5-cyanophenyl)-4-(4-(3,4-dichlorophenyl)-1H-1,2,3-triazol-1-yl)-5-hydroxy-N-((1S,2S)-2-hydroxycyclopentyl)-6-(hydroxymethyl)-3-methoxytetrahydro-2H-pyran-2-carboxamide]"
2,330,"CO[C@@H]1[C@@H](n2cc(-c3ccc(Cl)c(Cl)c3)nn2)[C@@H](O)[C@@H](CO)O[C@H]1C(=O)N(c1cc(Cl)cc(C#N)c1)[C@@H]1CCC[C@H]1O [Example 1.8.4R, (2R,3R,4S,5R,6R)-N-(3-chloro-5-cyanophenyl)-4-(4-(3,4-dichlorophenyl)-1H-1,2,3-triazol-1-yl)-5-hydroxy-N-((1R,2R)-2-hydroxycyclopentyl)-6-(hydroxymethyl)-3-methoxytetrahydro-2H-pyran-2-carboxamide]"
3,40.8,"CO[C@@H]1[C@@H](n2cc(-c3ccc(Cl)c(Cl)c3)nn2)[C@@H](O)[C@@H](CO)O[C@H]1C(=O)N(c1cc(Br)cc(C#N)c1)[C@H]1CCC[C@@H]1O [Example 1.8.5, (2R,3R,4S,5R,6R)-N-(3-bromo-5-cyanophenyl)-4-(4-(3,4-dichlorophenyl)-1H-1,2,3-triazol-1-yl)-5-hydroxy-N-((1S,2S)-2-hydroxycyclopentyl)-6-(hydroxymethyl)-3-methoxytetrahydro-2H-pyran-2-carboxamide]"
4,22.9,"CO[C@@H]1[C@@H](n2cc(-c3cc(F)cc(Cl)c3)nn2)[C@@H](O)[C@@H](CO)O[C@H]1C(=O)N(c1cc(Br)cc(C#N)c1)[C@H]1CCC[C@@H]1O [Example 1.9.5, (2R,3R,4S,5R,6R)-N-(3-bromo-5-cyanophenyl)-4-(4-(3-chloro-5-fluorophenyl)-1H-1,2,3-triazol-1-yl)-5-hydroxy-N-((1S,2S)-2-hydroxycyclopentyl)-6-(hydroxymethyl)-3-methoxytetrahydro-2H-pyran-2-carboxamide]"
5,58.3,"CO[C@@H]1[C@@H](n2cc(-c3cc(F)cc(Br)c3)nn2)[C@@H](O)[C@@H](CO)O[C@H]1C(=O)N(c1cc(Cl)cc(C#N)c1)[C@H]1CCC[C@@H]1O [Example 1.10.4, (2R,3R,4S,5R,6R)-4-(4-(3-bromo-5-fluorophenyl)-1H-1,2,3-triazol-1-yl)-N-(3-chloro-5-cyanophenyl)-5-hydroxy-N-((1S,2S)-2-hydroxycyclopentyl)-6-(hydroxymethyl)-3-methoxytetrahydro-2H-pyran-2-carboxamide]"
6,699,"CO[C@@H]1[C@@H](n2cc(-c3cc(F)cc(Br)c3)nn2)[C@@H](O)[C@@H](CO)O[C@H]1C(=O)N(c1cc(Cl)cc(C#N)c1)[C@@H]1CCC[C@H]1O [Example 1.10.4R, (2R,3R,4S,5R,6R)-4-(4-(3-bromo-5-fluorophenyl)-1H-1,2,3-triazol-1-yl)-N-(3-chloro-5-cyanophenyl)-5-hydroxy-N-((1R,2R)-2-hydroxycyclopentyl)-6-(hydroxymethyl)-3-methoxytetrahydro-2H-pyran-2-carboxamide]"
7,21.9,"CO[C@@H]1[C@@H](n2cc(-c3ccc(C)c(F)c3F)nn2)[C@@H](O)[C@@H](CO)O[C@H]1C(=O)N(c1cc(Cl)cc(C#N)c1)[C@H]1CCC[C@@H]1O [Example 1.11.4, (2R,3R,4S,5R,6R)-N-(3-chloro-5-cyanophenyl)-4-(4-(2,3-difluoro-4-methylphenyl)-1H-1,2,3-triazol-1-yl)-5-hydroxy-N-((1S,2S)-2-hydroxycyclopentyl)-6-(hydroxymethyl)-3-methoxytetrahydro-2H-pyran-2-carboxamide]"
8,53.9,"CO[C@@H]1[C@@H](n2cc(-c3ccc(C)c(F)c3F)nn2)[C@@H](O)[C@@H](CO)O[C@H]1C(=O)N(c1cc(Cl)cc(C#N)c1)[C@@H]1CCC[C@H]1O [Example 1.11.4R, (2R,3R,4S,5R,6R)-N-(3-chloro-5-cyanophenyl)-4-(4-(2,3-difluoro-4-methylphenyl)-1H-1,2,3-triazol-1-yl)-5-hydroxy-N-((1R,2R)-2-hydroxycyclopentyl)-6-(hydroxymethyl)-3-methoxytetrahydro-2H-pyran-2-carboxamide]"

# Further lines, the compound ahead of its results:
row,Compound,IC50 [nM]
1,"CO[C@@H]1[C@@H](n2cc(-c3cc(F)cc(Br)c3)nn2)[C@@H](O)[C@@H](CO)O[C@H]1C(=O)N(c1cc(Br)cc(C#N)c1)[C@@H]1CCC[C@H]1O [Example 1.10.5R, (2R,3R,4S,5R,6R)-N-(3-bromo-5-cyanophenyl)-4-(4-(3-bromo-5-fluorophenyl)-1H-1,2,3-triazol-1-yl)-5-hydroxy-N-((1R,2R)-2-hydroxycyclopentyl)-6-(hydroxymethyl)-3-methoxytetrahydro-2H-pyran-2-carboxamide]",508
2,"CO[C@@H]1[C@@H](n2cc(-c3cc(F)cc(Br)c3)nn2)[C@@H](O)[C@@H](CO)O[C@H]1C(=O)N(c1cc(F)cc(C#N)c1)[C@H]1CCC[C@@H]1O [Example 1.10.7, (2R,3R,4S,5R,6R)-4-(4-(3-bromo-5-fluorophenyl)-1H-1,2,3-triazol-1-yl)-N-(3-cyano-5-fluorophenyl)-5-hydroxy-N-((1S,2S)-2-hydroxycyclopentyl)-6-(hydroxymethyl)-3-methoxytetrahydro-2H-pyran-2-carboxamide]",146
3,"CO[C@@H]1[C@@H](n2cc(-c3cc(F)cc(Br)c3)nn2)[C@@H](O)[C@@H](CO)O[C@H]1C(=O)N(c1cc(F)cc(C#N)c1)[C@@H]1CCC[C@H]1O [Example 1.10.7R, (2R,3R,4S,5R,6R)-4-(4-(3-bromo-5-fluorophenyl)-1H-1,2,3-triazol-1-yl)-N-(3-cyano-5-fluorophenyl)-5-hydroxy-N-((1R,2R)-2-hydroxycyclopentyl)-6-(hydroxymethyl)-3-methoxytetrahydro-2H-pyran-2-carboxamide]",1030
4,"CO[C@@H]1[C@@H](n2cc(-c3cc(F)cc(Br)c3)nn2)[C@@H](O)[C@@H](CO)O[C@H]1C(=O)N(c1cc(C)cc(C#N)c1)[C@H]1CCC[C@@H]1O [Example 1.10.8, (2R,3R,4S,5R,6R)-4-(4-(3-bromo-5-fluorophenyl)-1H-1,2,3-triazol-1-yl)-N-(3-cyano-5-methylphenyl)-5-hydroxy-N-((1S,2S)-2-hydroxycyclopentyl)-6-(hydroxymethyl)-3-methoxytetrahydro-2H-pyran-2-carboxamide]",157
5,"CO[C@@H]1[C@@H](n2cc(-c3cc(F)cc(Br)c3)nn2)[C@@H](O)[C@@H](CO)O[C@H]1C(=O)N(c1cc(C)cc(C#N)c1)[C@@H]1CCC[C@H]1O [Example 1.10.8R, (2R,3R,4S,5R,6R)-4-(4-(3-bromo-5-fluorophenyl)-1H-1,2,3-triazol-1-yl)-N-(3-cyano-5-methylphenyl)-5-hydroxy-N-((1R,2R)-2-hydroxycyclopentyl)-6-(hydroxymethyl)-3-methoxytetrahydro-2H-pyran-2-carboxamide]",1120
6,"COc1cc(C#N)cc(N(C(=O)[C@@H]2O[C@H](CO)[C@H](O)[C@H](n3cc(-c4cc(F)cc(Br)c4)nn3)[C@H]2OC)[C@H]2CCC[C@@H]2O)c1 [Example 1.10.9, (2R,3R,4S,5R,6R)-4-(4-(3-bromo-5-fluorophenyl)-1H-1,2,3-triazol-1-yl)-N-(3-cyano-5-methoxyphenyl)-5-hydroxy-N-((1S,2S)-2-hydroxycyclopentyl)-6-(hydroxymethyl)-3-methoxytetrahydro-2H-pyran-2-carboxamide]",174
7,"COc1cc(C#N)cc(N(C(=O)[C@@H]2O[C@H](CO)[C@H](O)[C@H](n3cc(-c4cc(F)cc(Br)c4)nn3)[C@H]2OC)[C@@H]2CCC[C@H]2O)c1 [Example 1.10.9R, (2R,3R,4S,5R,6R)-4-(4-(3-bromo-5-fluorophenyl)-1H-1,2,3-triazol-1-yl)-N-(3-cyano-5-methoxyphenyl)-5-hydroxy-N-((1R,2R)-2-hydroxycyclopentyl)-6-(hydroxymethyl)-3-methoxytetrahydro-2H-pyran-2-carboxamide]",1200
8,"CO[C@@H]1[C@@H](n2cc(-c3ccc(C)c(F)c3F)nn2)[C@@H](O)[C@@H](CO)O[C@H]1C(=O)N(c1cc(Cl)cc(Cl)c1)[C@H]1CCC[C@@H]1O [Example 1.11.2, (2R,3R,4S,5R,6R)-N-(3,5-dichlorophenyl)-4-(4-(2,3-difluoro-4-methylphenyl)-1H-1,2,3-triazol-1-yl)-5-hydroxy-N-((1S,2S)-2-hydroxycyclopentyl)-6-(hydroxymethyl)-3-methoxytetrahydro-2H-pyran-2-carboxamide]",15.1
9,"CO[C@@H]1[C@@H](n2cc(-c3ccc(C)c(F)c3F)nn2)[C@@H](O)[C@@H](CO)O[C@H]1C(=O)N(c1cc(Br)cc(C#N)c1)[C@H]1CCC[C@@H]1O [Example 1.11.5, (2R,3R,4S,5R,6R)-N-(3-bromo-5-cyanophenyl)-4-(4-(2,3-difluoro-4-methylphenyl)-1H-1,2,3-triazol-1-yl)-5-hydroxy-N-((1S,2S)-2-hydroxycyclopentyl)-6-(hydroxymethyl)-3-methoxytetrahydro-2H-pyran-2-carboxamide]",14.9
